ChEMBL document CHEMBL5661943, “ASAP - In vitro antiviral effect” (2024)
pEC50: −log10 of the molar value.

Legend:
Zika virus [1] = test: EC50 is reported via analysis of immunofluorescence staining. The assay has been performed by Icahn School of Medicine at Mount Sinai.; type: functional, organism-based, Chlorocebus sabaeus, VeroE6/TMPRSS2; conditions: for EC90: P-gp concentration 2 uM, P-gp inhibitor Elacidar
dengue virus type 2 [2] = test: Functional immunofluorescence assay to measure dose dependent changes in antiviral-drug inhibitory efficacy against Dengue virus type 2 Thailand/16681/84 in Vero E6/TMPRSS2 cells (cotreated with P-gp inhibitor, Elacridar). Cells are treated with antiviral candidates that are serially diluted, following infection, cells are fixed. EC50 is reported via analysis of immunofluorescence staining. The assay has been performed by Icahn School of Medicine at Mount Sinai.; type: organism-based, Chlorocebus sabaeus, VeroE6/TMPRSS2
Zika virus [3] = test: Functional CPE-based assay to measure dose dependent changes in antiviral-drug inhibitory efficacy against Zika virus MR766 in Vero E6 miRFP670 cells. Cells are treated with antiviral candidates that are serially diluted. EC50 is reported via analysis of MTS assay as a readout of CPE. The assay has been performed by KU Leuven.; type: organism-based, Chlorocebus sabaeus, Vero C1008; conditions: Zika virus; for pEC50: Vero C1008
dengue virus type 2 [4] = test: Functional assay to measure dose dependent changes in antiviral-drug inhibitory efficacy against Dengue virus type 2 New Guinea C in Vero E6 miRFP670 cells (cotreated with P-gp inhibitor, CP100356). Cells are treated with antiviral candidates that are serially diluted, following infection, cells are fixed. EC50 is reported via analysis of fluorescence intensity using high-content imager. The …; type: organism-based, Chlorocebus sabaeus, Vero C1008; conditions: Dengue virus

**Q.** With `O=C(Nc1cc(Cl)cc(C(=O)NCc2ccc(-c3nnn[nH]3)cc2)c1)OCc1ccccc1` as the compound, how does the pEC50 (Zika virus [1]; Zika virus, VeroE6/TMPRSS2) read?
**A.** The pEC50 was < 4.78.

**Q.** And the EC90 (Zika virus [1]; Zika virus, VeroE6/TMPRSS2, Maximum measured 73.474 %, Minimum measured 51.372 %)?
**A.** Its EC90 is > 16.7 µM.

**Q.** What about the pEC50 (dengue virus type 2 [2]; Dengue virus, VeroE6/TMPRSS2) of the same compound?
**A.** The pEC50 was 4.61.

**Q.** And the EC90 (dengue virus type 2 [2]; Dengue virus, VeroE6/TMPRSS2)?
**A.** Its EC90 is 40.9 µM.

**Q.** And the pEC50 (Zika virus [3])?
**A.** The pEC50 was < 4.30.

**Q.** And the EC90 (Zika virus [3]; Vero C1008, Baseline response 0 %, Hill slope 2.99, Maximum measured 29.669 %, Maximum response 100 %, Minimum measured 0.824 %, R squared 0.934)?
**A.** The EC90 was > 50 µM.

**Q.** What about the pEC50 (dengue virus type 2 [4]; Vero C1008) of the same compound?
**A.** Its pEC50 is < 4.30.

**Q.** And the EC90 (dengue virus type 2 [4]; Vero C1008, Maximum measured 125.704 %, Minimum measured 70.659 %, P-gp concentration 500 nM, P-gp inhibitor CP100356)?
**A.** The EC90 was > 50 µM.

**Q.** What does the source list for `NCc1cccc(CCc2cc(Cl)cc(NC(=O)OCc3ccccc3)c2)c1`?
**A.** pEC50 (Zika virus [1]; Zika virus, VeroE6/TMPRSS2): < 4.30; EC90 (Zika virus [1]; Zika virus, VeroE6/TMPRSS2, Maximum measured 110.897 %, Minimum measured 60.854 %): > 50 µM; pEC50 (dengue virus type 2 [2]; Dengue virus, VeroE6/TMPRSS2): < 5.73; EC90 (dengue virus type 2 [2]; Dengue virus, VeroE6/TMPRSS2, Maximum measured 240.936 %, Minimum measured 110.203 %, P-gp concentration 2 uM, P-gp inhibitor Elacidar): > 1.85 µM; pEC50 (Zika virus [3]): < 4.30; EC90 (Zika virus [3]; Vero C1008, Maximum measured 1.168 %, Minimum measured -5.971 %): > 50 µM; pEC50 (dengue virus type 2 [4]; Vero C1008): 5.15; EC90 (dengue virus type 2 [4]; Vero C1008, Baseline response 0 %, EC90 CI (lower) 3.921 uM, EC90 CI (upper) 6.549 uM, Hill slope -6.432, Maximum measured 108.307 %, Maximum response 100 %, Minimum measured 4.257 %, P-gp concentration 500 nM, R squared 0.964, P-gp inhibitor CP100356): 10 µM

**Q.** What does the source list for `COC(=O)c1cc(NC(=O)c2cc(Cl)cc(NC(=O)OCc3ccccc3)c2)cc(-c2nnn[nH]2)c1`?
**A.** pEC50 (Zika virus [1]; Zika virus, VeroE6/TMPRSS2): < 4.78; EC90 (Zika virus [1]; Zika virus, VeroE6/TMPRSS2, Maximum measured 163.156 %, Minimum measured 112.225 %): > 16.7 µM; pEC50 (dengue virus type 2 [2]; Dengue virus, VeroE6/TMPRSS2): 4.40; EC90 (dengue virus type 2 [2]; Dengue virus, VeroE6/TMPRSS2, Baseline response 0 %, Hill slope -17.631, Maximum measured 314.134 %, Maximum response 266.23 %, Minimum measured 4.599 %, P-gp concentration 2 uM, R squared 0.779, P-gp inhibitor Elacidar): 45 µM; pEC50 (Zika virus [3]): < 4.30; EC90 (Zika virus [3]; Vero C1008, Maximum measured 4.051 %, Minimum measured -3.87 %): > 50 µM; pEC50 (dengue virus type 2 [4]; Vero C1008): 4.37; EC90 (dengue virus type 2 [4]; Vero C1008): 49.4 µM

**Q.** With `CC(C)(C)NC(=O)[C@H](Nc1cccc(-c2nn[nH]n2)c1)c1cc(Cl)cc(NC(=O)OCc2ccccc2)c1` as the compound, how does the pEC50 (Zika virus [1]; Zika virus, VeroE6/TMPRSS2) read?
**A.** The pEC50 was 4.43.

**Q.** What about the EC90 (Zika virus [1]; Zika virus, VeroE6/TMPRSS2, Baseline response 0 %, Hill slope -8.55, Maximum measured 97.768 %, Maximum response 77.157 %, Minimum measured 5.982 %, R squared 0.78) of the same compound?
**A.** Its EC90 is 48.4 µM.

**Q.** And the pEC50 (dengue virus type 2 [2]; Dengue virus, VeroE6/TMPRSS2)?
**A.** The pEC50 was < 4.30.

**Q.** What about the EC90 (dengue virus type 2 [2]; Dengue virus, VeroE6/TMPRSS2, Maximum measured 98.938 %, Minimum measured 28.549 %, P-gp concentration 2 uM, P-gp inhibitor Elacidar) of the same compound?
**A.** Its EC90 is > 50 µM.

**Q.** And the pEC50 (Zika virus [3])?
**A.** Its pEC50 is 4.30.

**Q.** And the EC90 (Zika virus [3]; Vero C1008, Baseline response 0 %, Hill slope 4.346, Maximum measured 50.323 %, Maximum response 100 %, Minimum measured -0.582 %, R squared 0.944)?
**A.** Its EC90 is > 50 µM.

**Q.** And the pEC50 (dengue virus type 2 [4]; Vero C1008)?
**A.** The pEC50 was 4.30.

**Q.** And the EC90 (dengue virus type 2 [4]; Vero C1008, Baseline response 0 %, Hill slope -29.373, Maximum measured 114.47 %, Maximum response 100 %, Minimum measured 52.367 %, P-gp concentration 500 nM, R squared 0.626, P-gp inhibitor CP100356)?
**A.** Its EC90 is > 50 µM.

**Q.** With `O=C(Nc1cc(Cl)cc(C(=O)Nc2cccc(C3CCNCC3)c2)c1)OCc1ccccc1` as the compound, how does the pEC50 (Zika virus [1]; Zika virus, VeroE6/TMPRSS2) read?
**A.** Its pEC50 is 5.49.

**Q.** And the EC90 (Zika virus [1]; Zika virus, VeroE6/TMPRSS2, Maximum measured 120.28 %, Minimum measured 106.347 %)?
**A.** The EC90 was > 1.85 µM.

**Q.** What about the EC90 (Zika virus [1]; Zika virus, VeroE6/TMPRSS2, Baseline response 0 %, Hill slope -10.935, Maximum measured 129.824 %, Maximum response 100 %, Minimum measured 42.275 %, R squared 0.16) of the same compound?
**A.** Its EC90 is > 3.33 µM.

**Q.** And the pEC50 (Zika virus [1]; veroe6/tmprss2)?
**A.** Its pEC50 is < 5.73.

**Q.** And the EC90 (dengue virus type 2 [2]; Baseline response 0 %, Hill slope -7.018, Maximum measured 136.667 %, Maximum response 100 %, Minimum measured 60.314 %, P-gp concentration 2 uM, R squared 0.441, P-gp inhibitor Elacidar)?
**A.** The EC90 was > 1.85 µM.

**Q.** What about the pEC50 (dengue virus type 2 [2]; Dengue virus, VeroE6/TMPRSS2) of the same compound?
**A.** The pEC50 was 5.49.

**Q.** And the EC90 (dengue virus type 2 [2]; Dengue virus, VeroE6/TMPRSS2, Baseline response 0 %, Hill slope -0.392, Maximum measured 120.272 %, Maximum response 100 %, Minimum measured 45.482 %, P-gp concentration 2 uM, R squared 0.27, P-gp inhibitor Elacidar)?
**A.** The EC90 was > 3.33 µM.

**Q.** And the pEC50 (dengue virus type 2 [2]; veroe6/tmprss2)?
**A.** Its pEC50 is < 5.73.

**Q.** And the pEC50 (Zika virus [3])?
**A.** Its pEC50 is < 4.30.

**Q.** And the EC90 (Zika virus [3]; Vero C1008, Maximum measured 1.3 %, Minimum measured -10.726 %)?
**A.** Its EC90 is > 50 µM.

**Q.** And the pEC50 (dengue virus type 2 [4]; Vero C1008)?
**A.** Its pEC50 is 5.39.

**Q.** And the EC90 (dengue virus type 2 [4]; Vero C1008, Baseline response 0 %, EC90 CI (lower) 2.724 uM, EC90 CI (upper) 4.009 uM, Hill slope -10.989, Maximum measured 107.904 %, Maximum response 100 %, Minimum measured 0.838 %, P-gp concentration 500 nM, R squared 0.983, P-gp inhibitor CP100356)?
**A.** Its EC90 is 4.93 µM.

**Q.** With `O=C(Nc1ccc2c(c1)CNC2)c1cc(Cl)cc(-n2cccc2)c1` as the compound, how does the pEC50 (Zika virus [1]; Zika virus, VeroE6/TMPRSS2) read?
**A.** Its pEC50 is < 5.26.

**Q.** What about the EC90 (Zika virus [1]; Zika virus, VeroE6/TMPRSS2, Maximum measured 131.342 %, Minimum measured 97.756 %) of the same compound?
**A.** Its EC90 is > 5.56 µM.

**Q.** And the EC90 (Zika virus [1]; Zika virus, VeroE6/TMPRSS2, Baseline response 0 %, Hill slope -0.378, Maximum measured 125.075 %, Maximum response 100 %, Minimum measured 52.976 %, R squared 0.223)?
**A.** Its EC90 is > 5.56 µM.

**Q.** What about the pEC50 (dengue virus type 2 [2]; Dengue virus, VeroE6/TMPRSS2) of the same compound?
**A.** The pEC50 was 4.82.

**Q.** What about the EC90 (dengue virus type 2 [2]; Dengue virus, VeroE6/TMPRSS2, Baseline response 0 %, Hill slope -12.71, Maximum measured 168.092 %, Maximum response 100 %, Minimum measured 22.727 %, P-gp concentration 2 uM, R squared 0.109, P-gp inhibitor Elacidar) of the same compound?
**A.** The EC90 was > 16.7 µM.

**Q.** What about the pEC50 (Zika virus [3]) of the same compound?
**A.** The pEC50 was < 4.30.

**Q.** And the EC90 (Zika virus [3]; Vero C1008, Baseline response 0 %, Hill slope 0.167, Maximum measured 17.974 %, Maximum response 100 %, Minimum measured 0.845 %, R squared 0.067)?
**A.** The EC90 was > 50 µM.

**Q.** What about the pEC50 (dengue virus type 2 [4]; Vero C1008) of the same compound?
**A.** Its pEC50 is 4.74.

**Q.** And the EC90 (dengue virus type 2 [4]; Vero C1008, Baseline response 0 %, Hill slope -1.567, Maximum measured 91.76 %, Maximum response 100 %, Minimum measured 2.031 %, P-gp concentration 500 nM, R squared 0.898, P-gp inhibitor CP100356)?
**A.** The EC90 was > 50 µM.
